Read-outs that look alike come from different tables or passages of the source.
Key:
RhoC C20S = RhoC C20S (Homo sapiens, UniProt P08134, C20S); assay: RhoC expression (Western) and RhoC activity assay in cells; format: cell-based; set-up: expressed in transfected cells; host or cells: human mammary epithelial (HME) cells; settings: HME-C20S RhoC cells, 6-TG three days
Protocol: FIG. 14. Determination of cell invasiveness in the presence and absence of thiopurines and/or redox agents. […] Western blot analysis representing the total expression of RhoC in these cells also is shown. (B) Experimental procedures for the determination of the time-dependent motility of cells using the QCM Cell Invasion Assay kit in the presence and absence of 6-TG and DETA/NO are described elsewhere herein.
Cells were lysed in an extraction buffer containing 50 mM NaCl, 5 mM MgCl2, 1 mM ethylenediaminetetraacetic acid (EDTA), 0.1 mM diethylenetriaminepentaacetic acid (DTPA), and 0.1% NP40 in 150 mM TrisHCl (pH 8.0). The content of […] RhoC in cells then was determined by using Western analysis that relies on a monoclonal anti-RhoC antibody (Biocompare, South San Francisco, Calif.). To determine RhoC activity, the colorimetric RhoA activation assay Biochem Kit (Cytoskeleton, Denver, Colo.) was used essentially as described in the previous study (Hall et al. Neoplasia 10, 797-803 (2008)) except that the RhoC specific antibody (vide supra), instead of the RhoA antibody included in the assay kit, was used for this analysis.

Rho proteins = assay: Binding affinity of 6-TGDP compared with GDP (Example 3); settings: all examined Rho proteins; FIG. 16A
Protocol: (a) A competitive binding assay was performed to determine the binding affinity of Rho GTPase and 6-TGDP. The radiolabeled [^3H]GDP-loaded Rho protein (1 μM) was titrated with various concentrations of 6-TGDP. The titrated Rho protein sample then was spotted onto a nitrocellulose membrane. Each membrane was washed three times with the assay buffer, and radioactivity was determined using a Beckman-Coulter scintillation counter. The radioactivity of the sample (Rho protein-bound [^3H]GDP) was converted into, and thus plotted, as the fraction of mol GDP per mol total Rho protein. The apparent dissociation constant (^appKD) of the Rho protein with [^3H]GDP in the presence of 6-TGDP was determined by using Prism software to fit the titration curve to a hyperbola.
The RhoC and mutant RhoC bound GDP also can be competitively displaced with 6-TGDP (FIG. 16A). The binding affinities that 6-TGDP has for all of these examined Rho proteins are ˜2-fold weaker than that of GDP for Rho proteins (FIG. 16A).

Rac1 = Rac1 (Homo sapiens, UniProt P63000); assay: Guanine nucleotide exchange of [3H]GDP-loaded GTPase with 6-TGDP (FIG. 13A); format: binding; set-up: made in house; host or cells: E. coli
Protocol: FIG. 13. Guanine nucleotide exchange of small GTPases with 6-TGDP. (A) To monitor 6-TGDP-mediated GTPase GDP dissociation, [^3H]GDP-loaded GTPase (1 μM) was incubated with 6-TGDP (0-2000 μM) for 1 h. (B) To monitor GTPase 6-TGDP dissociation by GDP (0-2000 μM) in the presence and absence of dithiothreitol (DTT), 6-TGDP-loaded GTPase (˜1 μM) was treated with .NO2 (˜3 μM) under anaerobic conditions and was incubated with various concentrations of [^3H]GDP (0-2000 μM) in the presence and absence of DTT (10 mM) for 1 h. For all assays, aliquots were withdrawn and spotted onto nitrocellulose filters. The filters were then washed three times with an assay buffer, and radioactivity was determined using a Beckman-Coulter scintillation counter. The resultant radioactivity (dpm) values associated with GTPase-bound [^3H]GDP were converted into the fraction of mol nucleotide per mol total GTPase. The data presented represent mean and standard error values from triplicate measurements. The apparent dissociation constants (appKD values) of GTPase 6-TGDP association ([^3H]GDP dissociation, A); and 6-TGDP dissociation ([3H]GDP association, B) were obtained by fitting the data to a simple dissociation and association, respectively. (A) The ^appKD values of Ras, RhoC, RhoA and Rac1 for 6-TGDP, are, respectively, 2300, 230, 224, and 245 μM [6-TGDP]. (B) The appKD values of RhoC with and without DTT are, respectively, 560, and 1000 μM [[^3H]GDP], whereas the ^appKD values of Ras with and without DTT are 530, and 520 μM [[^3H]GDP], respectively. The standard errors of each ^appKD value are less than 10% of their given values, and regression values associated with the fit were r^2>0.9560.
A kinetic assay method using radiolabeled GDP ([^3H]GDP) was established. The apparent dissociation constants (^appKD 6-TGDP) of Rho GTPases (including RhoA, Cdc42, and Rac1/2/3) and Ras with 6-TGDP were determined (FIG. 13). The results of this preliminary kinetic study provided strong support for the mechanism proposed for the role of 6-TGNP in RhoC inactivation (FIG. 7).
The true dissociation constant (^trueKD 6-TGDP) of Ras, RhoC, RhoA and Rac1 for 6-TGDP was then calculated to be ˜20.7 pM, 212 μM, 208 μM, and 158 μM [6-TGDP] by using a compensation equation, ^trueKD 6-TGDP=^appKD 6-TGDP/(1+[GDP]/^trueKD GDP) (95), in conjunction with the values given [(^appKD 6-TGDP of Ras, RhoC, RhoA, and Rac1=2300, 230, 224, and 245 μM (FIG. 13) and ^trueKD GDP=9 pM, 12 μM, 13 μM and 1.8 μM, respectively. The ^trueKD GDP of Ras, RhoA and Rac1 was determined previously (Lenzen et al. Biochemistry 37, 7420-7430 (1998); Heo et al. Biochemistry 44, 6573-6585 (2005)) and the ^trueKD GDP of RhoC was further determined. Example: ^trueKD 6-TGDP for Ras=2300 μM/(1+1 μM GDP/[…])=[…] [6-TGDP]].

Chain of RhoC C20S (P08134 whole entry C20S): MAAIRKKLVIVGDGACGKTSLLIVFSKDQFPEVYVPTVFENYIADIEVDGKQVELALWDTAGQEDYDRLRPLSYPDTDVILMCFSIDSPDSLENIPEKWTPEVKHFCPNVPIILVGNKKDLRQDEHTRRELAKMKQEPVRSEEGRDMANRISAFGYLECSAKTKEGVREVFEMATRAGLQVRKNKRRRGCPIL

activity and total expression of RhoC C20S (RhoC C20S) | binding affinity of 6-TGDP weaker than that of GDP (Rho proteins) | Kd (Rac1; [3H]GDP-loaded GTPase 1 μM, 6-TGDP 0-2000 μM, 1 h, FIG. 13A, read-out: appKD for 6-TGDP) | Kd (Rac1; calculated by compensation equation from appKD 6-TGDP and trueKD GDP, read-out: trueKD 6-TGDP) | Structure (SMILES)
unchanged |  |  |  | Nc1nc2nc[nH]c2c(=S)[nH]1 [6-TG, 6-thioguanine]
 | ~2 fold | 245 µM | 158 µM | Nc1nc2c(ncn2[C@@H]2O[C@H](COP(=O)(O)OP(=O)(O)O)[C@@H](O)[C@H]2O)c(=S)[nH]1 [6-TGDP, 6-thioguanosine diphosphate]
